Laboratory results from US4808517A (priority 1985, dated 1989).

Test system: submitochondrial particles
Assay type: biochemical

For `Oc1c(Cl)c(Cl)c(Cl)c(Cl)c1Cl` [Pentachlorophenol], the “Inhibition of maximum NADH concentration” value was 39%.
